Assay results from PubChem BioAssay (NCI).
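Tested at 5 concentrations; 48 h exposure; 96-well plates; endpoints linearly interpolated, else capped at highest concentration. GI50 marks 50% less growth. At the TGI there is no net growth.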

Tests used:
Test in all cases: NCI-60 cell line screen, 48 h
SR leukemia = tested on: SR leukemia
MOLT-4 leukemia = tested on: MOLT-4 leukemia
NCI-H23 lung = tested on: NCI-H23 lung
SK-MEL-28 melanoma = tested on: SK-MEL-28 melanoma
OVCAR-5 ovarian = tested on: OVCAR-5 ovarian
UO-31 renal = tested on: UO-31 renal
SNB-19 CNS = tested on: SNB-19 CNS
A498 renal = tested on: A498 renal
KM12 colon = tested on: KM12 colon
RXF 393 renal = tested on: RXF 393 renal
T-47D breast = tested on: T-47D breast
NCI-H522 lung = tested on: NCI-H522 lung
K-562 leukemia = tested on: K-562 leukemia
786-0 renal = tested on: 786-0 renal
HCT-116 colon = tested on: HCT-116 colon
SF-539 CNS = tested on: SF-539 CNS
OVCAR-4 ovarian = tested on: OVCAR-4 ovarian
UACC-62 melanoma = tested on: UACC-62 melanoma
HOP-62 NSCLC = tested on: HOP-62 NSCLC
SF-295 CNS = tested on: SF-295 CNS
HL-60(TB) leukemia = tested on: HL-60(TB) leukemia
HCC-2998 colon = tested on: HCC-2998 colon
HT29 colon = tested on: HT29 colon
OVCAR-3 ovarian = tested on: OVCAR-3 ovarian
COLO 205 colon = tested on: COLO 205 colon
HCT-15 colon = tested on: HCT-15 colon
CAKI-1 renal = tested on: CAKI-1 renal
SK-MEL-5 melanoma = tested on: SK-MEL-5 melanoma
NCI-H460 lung = tested on: NCI-H460 lung
SK-OV-3 ovarian = tested on: SK-OV-3 ovarian
SW-620 colon = tested on: SW-620 colon
MALME-3M melanoma = tested on: MALME-3M melanoma
M14 melanoma = tested on: M14 melanoma
SNB-75 CNS = tested on: SNB-75 CNS
ACHN renal = tested on: ACHN renal
UACC-257 melanoma = tested on: UACC-257 melanoma
MDA-MB-435 = tested on: MDA-MB-435
NCI/ADR-RES ovarian = tested on: NCI/ADR-RES ovarian
CCRF-CEM leukemia = tested on: CCRF-CEM leukemia
NCI-H226 lung = tested on: NCI-H226 lung
IGROV1 ovarian = tested on: IGROV1 ovarian
HS 578T breast = tested on: HS 578T breast
SK-MEL-2 melanoma = tested on: SK-MEL-2 melanoma
RPMI-8226 leukemia = tested on: RPMI-8226 leukemia
PC-3 prostate = tested on: PC-3 prostate
OVCAR-8 ovarian = tested on: OVCAR-8 ovarian
DU-145 prostate = tested on: DU-145 prostate
LOX IMVI melanoma = tested on: LOX IMVI melanoma
SF-268 CNS = tested on: SF-268 CNS
TK-10 renal = tested on: TK-10 renal
BT-549 breast = tested on: BT-549 breast
SN12C renal = tested on: SN12C renal
MDA-MB-231 breast = tested on: MDA-MB-231 breast
U251 CNS = tested on: U251 CNS
A549 NSCLC = tested on: A549 NSCLC
MCF7 breast = tested on: MCF7 breast

## Cn1cc(C2=C(c3cn(C)c4ccc(N)cc34)C(=O)NC2=O)c2ccccc21
SR leukemia
  GI50: 2.05 µM
  TGI: > 25 µM
MOLT-4 leukemia
  GI50: 10.2 µM
  TGI: > 25 µM
NCI-H23 lung
  GI50: 15.3 µM
  TGI: > 25 µM
SK-MEL-28 melanoma
  GI50: 17.2 µM
  TGI: > 25 µM
OVCAR-5 ovarian
  GI50: > 25 µM
  TGI: > 25 µM
UO-31 renal
  GI50: 3.6 µM
  TGI: > 25 µM
SNB-19 CNS
  GI50: > 25 µM
  TGI: > 25 µM
A498 renal
  GI50: 9.28 µM
  TGI: > 25 µM
KM12 colon
  GI50: 6.4 µM
  TGI: > 25 µM
RXF 393 renal
  GI50: 8.13 µM
  TGI: > 25 µM
T-47D breast
  GI50: 18.8 µM
  TGI: > 25 µM
NCI-H522 lung
  GI50: 6.78 µM
  TGI: > 25 µM
K-562 leukemia
  GI50: 1.92 µM
  TGI: > 25 µM
786-0 renal
  GI50: 19.7 µM
  TGI: > 25 µM
HCT-116 colon
  GI50: 6.65 µM
  TGI: > 25 µM
SF-539 CNS
  GI50: 6.14 µM
  TGI: 24.4 µM
OVCAR-4 ovarian
  GI50: > 20.2 µM
  TGI: > 25 µM
UACC-62 melanoma
  GI50: 13.1 µM
  TGI: > 25 µM
HOP-62 NSCLC
  GI50: 9.59 µM
  TGI: > 25 µM
SF-295 CNS
  GI50: 6.83 µM
  TGI: > 22.2 µM
HL-60(TB) leukemia
  GI50: 7.41 µM
  TGI: > 25 µM
HCC-2998 colon
  GI50: > 25 µM
  TGI: > 25 µM
HT29 colon
  GI50: 5.82 µM
  TGI: > 25 µM
OVCAR-3 ovarian
  GI50: 4.79 µM
  TGI: 16 µM
COLO 205 colon
  GI50: 6 µM
  TGI: > 20.5 µM
HCT-15 colon
  GI50: 4.52 µM
  TGI: > 25 µM
CAKI-1 renal
  GI50: 4.85 µM
  TGI: > 25 µM
SK-MEL-5 melanoma
  GI50: 6.91 µM
  TGI: > 25 µM
NCI-H460 lung
  GI50: 9.53 µM
  TGI: > 25 µM
SK-OV-3 ovarian
  GI50: 8.99 µM
  TGI: > 25 µM
SW-620 colon
  GI50: 5 µM
  TGI: > 25 µM
MALME-3M melanoma
  GI50: > 25 µM
  TGI: > 25 µM
M14 melanoma
  GI50: 13.9 µM
  TGI: > 25 µM
SNB-75 CNS
  GI50: 1.63 µM
  TGI: > 21.2 µM
ACHN renal
  GI50: 13.9 µM
  TGI: > 25 µM
UACC-257 melanoma
  GI50: > 25 µM
  TGI: > 25 µM
MDA-MB-435
  GI50: 0.729 µM
  TGI: > 25 µM
NCI/ADR-RES ovarian
  GI50: 10.3 µM
  TGI: > 25 µM
CCRF-CEM leukemia
  GI50: 6.95 µM
  TGI: > 25 µM
NCI-H226 lung
  GI50: > 17.6 µM
  TGI: > 25 µM
IGROV1 ovarian
  GI50: 23.8 µM
  TGI: > 25 µM
HS 578T breast
  GI50: 5.3 µM
  TGI: > 25 µM
SK-MEL-2 melanoma
  GI50: 8.46 µM
  TGI: > 25 µM
RPMI-8226 leukemia
  GI50: > 16.5 µM
  TGI: > 25 µM
PC-3 prostate
  GI50: 9 µM
  TGI: > 25 µM
OVCAR-8 ovarian
  GI50: 17 µM
  TGI: > 25 µM
DU-145 prostate
  GI50: 12.3 µM
  TGI: > 25 µM
LOX IMVI melanoma
  GI50: 12.2 µM
  TGI: > 25 µM
SF-268 CNS
  GI50: 15.6 µM
  TGI: > 25 µM
TK-10 renal
  GI50: 23.1 µM
  TGI: > 25 µM
BT-549 breast
  GI50: 7.12 µM
  TGI: > 25 µM
SN12C renal
  GI50: 13.4 µM
  TGI: > 25 µM
MDA-MB-231 breast
  GI50: > 25 µM
  TGI: > 25 µM
U251 CNS
  GI50: 8.96 µM
  TGI: > 25 µM
A549 NSCLC
  GI50: 12.5 µM
  TGI: > 25 µM
MCF7 breast
  GI50: 4.76 µM
  TGI: > 25 µM
